Assay results taken from US10322161B2, “EPHA4 cyclic peptide antagonists for neuroprotection and neural repair” (Sanford Burnham Prebys Medical Discovery Institute, priority 2014, dated 2019).
Entries after “also recorded” stand apart in the source; their conditions may differ. Ends that are not written are not given here.

Experiments:
[1] = Stability of antagonistic activity in plasma
Protocol: (§1) Aliquots were collected at different time points and used in ELISA measuring inhibition of EphA4 AP-ephrin-A5 Fc binding. For ELISA, ephrin-A5 Fc was immobilized at 1 μg/mL for 1 hour at room temperature in protein A-coated 96-well plates as described above. […] The amount of bound AP fusion protein was quantified by measuring the absorbance at 280 nm. The optical density obtained from wells coated with Fc and incubated with EphA4 AP and plasma or serum was subtracted as the background.

EphA4 [2] = target: T1, EphA4 (Mus musculus, UniProt Q03137); experiment: ELISA, inhibition of ephrin-A5 AP binding to immobilized EphA4 Fc; settings: C-terminally amidated peptides
T1 construct: mouse EphA4 ectodomain fused to Fc; purchased R&D Systems
T1 sequence (Q03137 20-547 limits assumed): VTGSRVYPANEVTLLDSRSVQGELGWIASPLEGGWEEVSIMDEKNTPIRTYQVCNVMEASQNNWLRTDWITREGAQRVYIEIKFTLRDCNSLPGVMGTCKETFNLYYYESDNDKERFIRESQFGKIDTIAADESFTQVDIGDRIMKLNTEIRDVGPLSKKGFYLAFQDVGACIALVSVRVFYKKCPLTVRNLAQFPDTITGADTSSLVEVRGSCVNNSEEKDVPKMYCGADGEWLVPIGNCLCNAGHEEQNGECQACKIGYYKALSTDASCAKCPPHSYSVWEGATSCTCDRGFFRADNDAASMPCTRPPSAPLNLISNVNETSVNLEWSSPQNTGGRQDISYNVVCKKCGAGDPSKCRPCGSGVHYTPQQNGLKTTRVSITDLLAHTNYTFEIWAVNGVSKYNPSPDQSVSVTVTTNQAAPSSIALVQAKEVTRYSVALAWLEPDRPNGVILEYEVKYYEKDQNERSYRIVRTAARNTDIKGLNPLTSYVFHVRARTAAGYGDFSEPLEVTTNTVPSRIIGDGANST

[3] = Stability of antagonistic activity in cerebrospinal fluid (CSF); settings: rat, depending on the conditions, units inside the value
Protocol: as §1

in vitro [4] = settings: rat, Half-life (t1/2) CSF
Protocol: as §1

[5] = test system: HT22 mouse hippocampal neurons; experiment: MTT cytotoxicity assay; assay type: cell-based; settings: HT22 cells, 24 hours, 30 μM
Protocol: HT22 mouse hippocampal neurons were grown in DMEM supplemented with 10% FBS, 1 mM sodium pyruvate and antibiotics. […] The cells were then incubated for 2 hours in 5 mg/mL MTT (Sigma-Aldrich) in PBS at 37° C. in a CO2 incubator. The resulting formazan crystals were solubilized by addition of 100% DMSO and OD570 was measured.

[6] = test system: other Eph receptors (EphA2, EphA3, EphA5, EphA6, EphA7, EphA8, EphB1, EphB2, EphB3, EphB4, EphB6); experiment: Eph receptor selectivity ELISA (ephrin-A5 AP / ephrin-B2 AP binding to Eph receptor Fc); settings: concentration about 100-fold higher than the IC50 value for EphA4
in vitro [7] = settings: mouse, plasma, Half-life (t1/2) Plasma
Protocol: as §1

[8] = mouse, plasma, Half-life (t1/2) Plasma
Protocol: as §1

EphA4 [9] = target: EphA4 (Homo sapiens, UniProt P54764); settings: background statement; cited from earlier work
EphA4 (Homo sapiens, UniProt P54764), sequence (P54764 20-986, species assumed): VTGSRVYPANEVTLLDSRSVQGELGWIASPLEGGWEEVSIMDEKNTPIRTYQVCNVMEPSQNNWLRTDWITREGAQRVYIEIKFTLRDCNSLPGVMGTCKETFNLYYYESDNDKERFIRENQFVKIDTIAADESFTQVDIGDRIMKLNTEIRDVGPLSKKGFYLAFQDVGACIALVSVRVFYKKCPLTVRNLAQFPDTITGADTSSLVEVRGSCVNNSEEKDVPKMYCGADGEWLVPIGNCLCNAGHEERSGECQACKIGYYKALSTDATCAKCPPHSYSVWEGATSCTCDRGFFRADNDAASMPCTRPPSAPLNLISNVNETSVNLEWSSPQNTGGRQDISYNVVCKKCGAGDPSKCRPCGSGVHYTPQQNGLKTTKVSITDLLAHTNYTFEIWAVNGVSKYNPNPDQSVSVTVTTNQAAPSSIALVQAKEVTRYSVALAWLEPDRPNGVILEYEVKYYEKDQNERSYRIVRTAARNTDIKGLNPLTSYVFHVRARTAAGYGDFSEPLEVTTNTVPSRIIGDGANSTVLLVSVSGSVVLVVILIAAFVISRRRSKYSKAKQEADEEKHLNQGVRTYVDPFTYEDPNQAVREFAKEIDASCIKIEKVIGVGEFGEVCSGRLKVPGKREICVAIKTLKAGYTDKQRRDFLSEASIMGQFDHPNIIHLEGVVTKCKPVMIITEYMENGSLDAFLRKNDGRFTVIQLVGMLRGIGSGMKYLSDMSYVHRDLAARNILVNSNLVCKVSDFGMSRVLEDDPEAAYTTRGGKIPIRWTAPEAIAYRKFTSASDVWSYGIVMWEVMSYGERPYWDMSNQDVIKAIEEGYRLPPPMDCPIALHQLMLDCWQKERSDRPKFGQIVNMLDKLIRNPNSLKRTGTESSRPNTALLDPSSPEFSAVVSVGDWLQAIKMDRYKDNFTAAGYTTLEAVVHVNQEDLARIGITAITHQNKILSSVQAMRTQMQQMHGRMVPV

For `CC(C)[C@@H]1NC(=O)[C@@H](NC(=O)[C@H](Cc2ccc(O)cc2)NC(=O)[C@@H]2CCCN2C(=O)[C@H](C)N)CSSC[C@@H](C(=O)O)NC(=O)[C@H](CO)NC(=O)[C@H](Cc2c[nH]c3ccccc23)NC(=O)[C@H](CO)NC(=O)CNC(=O)[C@H](CCCNC(=N)N)NC(=O)[C@H](Cc2ccc(O)cc2)NC1=O` [APY, reference compound], which half-life at 200 μM ([1]; mouse, plasma, Half-life (t1/2) Plasma, mouse plasma, 37° C., loss of antagonistic activity) is on record?
Its half-life at 200 μM is 16 min.

With `CC(C)[C@@H]1NC(=O)[C@@H](NC(=O)[C@H](Cc2ccc(O)cc2)NC(=O)[C@@H]2CCCN2C(=O)[C@H](C)N)CSSC[C@@H](C(N)=O)NC(=O)[C@H](CO)NC(=O)[C@H](Cc2c[nH]c3ccccc23)NC(=O)[C@H](CO)NC(=O)[C@H](C)NC(=O)[C@H](CCCNC(=N)N)NC(=O)[C@H](Cc2ccc(O)cc2)NC1=O` [APY-Ala8.am] as the compound, how does the “loss in potency on replacement of Gly8” value (EphA4 [2]; relative to APY.am) read?
The value was “about 30 fold”.

With `CC(C)[C@@H]1NC(=O)[C@@H](NC(=O)[C@H](Cc2ccc(O)cc2)NC(=O)[C@@H]2CCCN2C(=O)[C@H](C)N)CSSC[C@@H](C(N)=O)NC(=O)[C@H](CO)NC(=O)[C@H](Cc2c[nH]c3ccccc23)NC(=O)[C@H](CO)NC(=O)[C@@H](C)NC(=O)[C@H](CCCNC(=N)N)NC(=O)[C@H](Cc2ccc(O)cc2)NC1=O` [APY-DAla8.am] as the compound, how does the “effect of Gly8 replacement on potency” value (EphA4 [2]) read?
The value was “did not substantially affect potency”.

With `CC(C)[C@@H]1NC(=O)[C@@H](NC(=O)[C@H](Cc2ccc(O)cc2)NC(=O)[C@@H]2CCCN2C(=O)[C@H](C)N)CSSC[C@@H](C(N)=O)NC(=O)[C@H](CO)NC(=O)[C@H](Cc2c[nH]c3ccccc23)NC(=O)[C@H](CO)NC(=O)CCNC(=O)[C@H](CCCNC(=N)N)NC(=O)[C@H](Cc2ccc(O)cc2)NC1=O` [APY-βAla8.am, APYCVYRβASWSC-am] as the compound, how does the half-life at 200 μM [3] read?
The half-life at 200 μM was 30 to 180 min.

And the increase in stability ([1]; relative to KYL and APY)?
Its increase in stability is 2-8 fold.

What about the half-life at 200 μM (in vitro [4]) of the same compound?
The half-life at 200 μM was 30 to 180 min.

And the “cytotoxicity (MTT)” value [5]?
Its value is “did not reveal significant cytotoxicity; also recorded: does not have detectable cytotoxic effects”.

What about the “inhibition of other Eph receptors” value [6] of the same compound?
Its value is “does not inhibit other Eph receptors”.

What about the half-life at 200 μM (in vitro [7]) of the same compound?
Its half-life at 200 μM is roughly 120 min.

Which results are given for `CC(C)[C@@H]1NC(=O)[C@@H](NC(=O)[C@H](Cc2ccc(O)cc2)NC(=O)[C@@H]2CCCN2C(=O)[C@@H](C)N)CSSC[C@@H](C(N)=O)NC(=O)[C@H](CO)NC(=O)[C@H](Cc2c[nH]c3ccccc23)NC(=O)[C@H](CO)NC(=O)CCNC(=O)[C@H](CCCNC(=N)N)NC(=O)[C@H](Cc2ccc(O)cc2)NC1=O` [DAla1-PY-βAla8.am, D-APYCVYRβASWSC-am]?
half-life at 200 μM (in vitro [4]): ~4320 min; half-life at 200 μM (in vitro [7]): ~4320 min

Which half-life [8] does the source give for KYLPYWPVLSSL [KYL] here?
Its half-life is 11 min.

What about the Kd (EphA4 [9]) of the same compound?
The Kd was 800 to 1000 nM.
